Structures are written as SMILES.

One experiment has as its target PI3K alpha (Homo sapiens (Human), UniProt P42336). The experiment in a line: Enzymatic PI3K alpha isoform inhibition (lipid kinase activity, Kinase-Glo luminescence). Format: biochemical. The conditions noted are these: Enzymatic assay. Here is the method: (§1) 1.1 Test of Lipid Kinase Activity […]
(§2) In a more preferred assay, the kinase reaction is performed in a final volume of 10 μl per well of a low volume non-binding CORNING, 384 well black plate (Cat. No. #3676). The final concentrations of ATP and phosphatidyl inositol (PI) in the assay are 1 μM and 10 μg/mL, respectively. The reaction is started by the addition of ATP.
(§3) The components of the assay are added per well as follows:
(§4) The Z′ value is a universal measurement of the robustness of an assay. A Z′ between 0.5 and 1.0 is considered an excellent assay.
(§5) IC50 is determined by a four parameter curve fitting routine that comes along with “excel fit”. A four parameter logistic equation is used to calculate IC50 values (IDBS XLfit) of the percentage inhibition of each compound at 8 concentrations (usually 10, 3.0, 1.0, 0.3, 0.1, 0.030, 0.010 and 0.003 μM). Alternatively, IC50 values are calculated using idbsXLfit model 204, which is a 4 parameter logistic model.
(§6) Yet alternatively, for an ATP depletion assay, compounds of the formula I to be tested are dissolved in DMSO and directly distributed into a white 384-well plate at 0.5 μl per well. To start the reaction, 10 μl of 10 nM PI3 kinase and 5 μg/mL 1-alpha-phosphatidylinositol (PI) are added into each well followed by 10 μl of 2 μM ATP. The reaction is performed until approx 50% of the ATP is depleted, and then stopped by the addition of 20 μl of Kinase-Glo solution (Promega Corp., Madison, Wis., USA). The stopped reaction is incubated for 5 minutes and the remaining ATP is then detected via luminescence. IC50 values are then determined.

In another experiment the target is PI3K delta (Homo sapiens (Human), UniProt O00329). The experiment in a line: Enzymatic PI3K delta isoform inhibition (lipid kinase activity, Kinase-Glo luminescence). The experiment is classed as biochemical. As to conditions: Enzymatic assay. As to the method:
as §1, §2, §3, §4, §5, §6
(Kinase-Glo measures the ATP left after a reaction by luminescence.)

Sequence of PI3K alpha (P42336 other isoform, or with tags, fused parts or gaps): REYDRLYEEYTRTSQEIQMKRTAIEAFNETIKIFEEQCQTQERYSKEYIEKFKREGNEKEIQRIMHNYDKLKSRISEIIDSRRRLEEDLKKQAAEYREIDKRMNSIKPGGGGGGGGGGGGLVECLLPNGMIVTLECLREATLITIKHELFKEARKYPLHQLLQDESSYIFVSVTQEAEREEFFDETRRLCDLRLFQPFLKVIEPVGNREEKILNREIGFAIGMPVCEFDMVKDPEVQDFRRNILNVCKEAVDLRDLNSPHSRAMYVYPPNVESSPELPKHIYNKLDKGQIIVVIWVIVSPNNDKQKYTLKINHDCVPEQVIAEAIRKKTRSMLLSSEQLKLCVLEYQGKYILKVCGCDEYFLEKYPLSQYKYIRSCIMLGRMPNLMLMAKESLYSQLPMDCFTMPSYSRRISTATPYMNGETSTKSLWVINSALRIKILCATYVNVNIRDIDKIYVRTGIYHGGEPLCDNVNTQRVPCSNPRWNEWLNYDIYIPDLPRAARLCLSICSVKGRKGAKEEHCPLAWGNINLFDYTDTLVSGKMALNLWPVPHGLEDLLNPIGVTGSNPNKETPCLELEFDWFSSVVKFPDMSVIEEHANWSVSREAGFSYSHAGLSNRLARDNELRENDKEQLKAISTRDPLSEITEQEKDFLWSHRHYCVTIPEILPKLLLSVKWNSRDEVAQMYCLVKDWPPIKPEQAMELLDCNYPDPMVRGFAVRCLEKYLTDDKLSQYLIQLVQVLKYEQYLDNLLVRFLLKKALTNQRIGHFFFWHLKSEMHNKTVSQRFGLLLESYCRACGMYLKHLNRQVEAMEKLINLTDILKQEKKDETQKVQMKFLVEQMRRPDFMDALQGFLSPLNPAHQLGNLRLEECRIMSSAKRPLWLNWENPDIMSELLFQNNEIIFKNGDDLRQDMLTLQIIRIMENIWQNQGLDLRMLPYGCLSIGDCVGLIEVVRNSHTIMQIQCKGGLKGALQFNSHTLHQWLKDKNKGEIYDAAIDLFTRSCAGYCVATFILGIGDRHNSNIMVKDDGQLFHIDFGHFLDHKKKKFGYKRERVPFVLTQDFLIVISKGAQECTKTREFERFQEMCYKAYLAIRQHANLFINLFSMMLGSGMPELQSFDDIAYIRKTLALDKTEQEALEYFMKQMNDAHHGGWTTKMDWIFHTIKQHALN
Sequence of PI3K delta (O00329 other isoform, or with tags, fused parts or gaps linker GGGGGG): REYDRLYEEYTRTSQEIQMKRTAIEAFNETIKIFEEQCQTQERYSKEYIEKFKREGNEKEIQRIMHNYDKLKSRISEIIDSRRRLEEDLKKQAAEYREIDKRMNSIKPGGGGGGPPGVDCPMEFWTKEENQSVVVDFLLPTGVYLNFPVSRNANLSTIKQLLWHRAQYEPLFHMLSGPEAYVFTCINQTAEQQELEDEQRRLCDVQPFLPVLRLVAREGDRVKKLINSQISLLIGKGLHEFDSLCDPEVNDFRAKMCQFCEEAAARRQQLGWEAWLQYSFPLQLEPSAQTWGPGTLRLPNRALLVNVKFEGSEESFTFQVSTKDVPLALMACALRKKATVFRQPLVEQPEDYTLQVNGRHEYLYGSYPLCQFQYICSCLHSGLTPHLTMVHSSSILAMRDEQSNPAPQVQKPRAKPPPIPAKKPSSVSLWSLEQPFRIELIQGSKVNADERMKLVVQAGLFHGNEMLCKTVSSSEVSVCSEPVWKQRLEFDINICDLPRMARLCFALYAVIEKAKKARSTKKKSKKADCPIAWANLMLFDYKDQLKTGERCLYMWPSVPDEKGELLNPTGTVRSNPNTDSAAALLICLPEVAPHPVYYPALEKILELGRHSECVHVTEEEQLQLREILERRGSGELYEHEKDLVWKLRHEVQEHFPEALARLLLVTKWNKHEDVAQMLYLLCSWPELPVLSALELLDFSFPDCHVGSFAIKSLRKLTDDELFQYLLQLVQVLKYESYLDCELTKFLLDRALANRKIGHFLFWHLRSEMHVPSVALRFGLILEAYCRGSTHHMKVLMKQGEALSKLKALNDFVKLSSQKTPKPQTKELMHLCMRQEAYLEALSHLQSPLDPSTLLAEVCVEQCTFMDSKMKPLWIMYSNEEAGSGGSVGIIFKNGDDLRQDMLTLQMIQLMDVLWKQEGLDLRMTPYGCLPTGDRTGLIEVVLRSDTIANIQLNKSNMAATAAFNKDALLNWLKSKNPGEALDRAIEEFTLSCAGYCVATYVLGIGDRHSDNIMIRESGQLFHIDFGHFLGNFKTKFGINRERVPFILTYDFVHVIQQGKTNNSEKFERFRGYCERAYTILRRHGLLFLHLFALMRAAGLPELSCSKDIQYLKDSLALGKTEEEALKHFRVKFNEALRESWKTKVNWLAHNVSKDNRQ

In the case of `O=C(C1CCOCC1)N1CC[C@H](Oc2ccc3c(c2)N(c2ccc(C(F)(F)F)nc2)CCO3)C1` [Example A42, (Tetrahydro-pyran-4-yl)-{(S)-3-[4-(6-trifluoromethyl-pyridin-3-yl)-3,4-dihydro-2H-benzo[1,4]oxazin-6-yloxy]-pyrrolidin-1-yl}-methanone], the IC50 (usually the midpoint of a concentration-inhibition curve) at PI3K alpha worked out at 1140 nM; against PI3K delta it was 30 nM.
Taken in the same sequence, the figures for `COc1ncc(N2CCOc3ccc(O[C@H]4CCN(C(=O)CC#N)C4)cc32)cc1F` [Example B116, 3-{(S)-3-[4-(5-Fluoro-6-methoxy-pyridin-3-yl)-3,4-dihydro-2H-benzo[1,4]oxazin-6-yloxy]-pyrrolidin-1-yl}-3-oxo-propionitrile] were 304 nM and 22 nM.
On the same counts, the results for `COc1cncc(N2CCOc3ccc(O[C@H]4CCN(C(=O)C5CCOCC5)C4)cc32)c1` [Example A33, {(S)-3-[4-(5-Methoxy-pyridin-3-yl)-3,4-dihydro-2H-benzo[1,4]oxazin-6-yloxy]-pyrrolidin-1-yl}-(tetrahydro-pyran-4-yl)-methanone] are 1700 nM and 85 nM.
Taken in the same sequence, the figures for `COc1ncc(N2CCOc3ccc(O[C@H]4CCN(C(=O)C5CCS(=O)(=O)CC5)C4)c(C)c32)cc1C` [V, (1,1-Dioxo-hexahydro-1lambda*6*-thiopyran-4-yl)-{(S)-3-[4-(6-methoxy-5-methyl-pyridin-3-yl)-5-methyl-3,4-dihydro-2H-benzo[1,4]oxazin-6-yloxy]-pyrrolidin-1-yl}-methanone] were 3200 nM and 79 nM.
As to `Cc1cc(N2CCOc3ccc(O[C@H]4CCN(C(=O)C5COCCO5)C4)cc32)cnc1S(C)(=O)=O` (single isomer, unassigned) [Example H4], the IC50 at PI3K alpha was 848 nM; at PI3K delta it was 11 nM.
As to `COc1cc(N2CCOc3ccc(O[C@H]4CCN(C(=O)C5COCCO5)C4)cc32)cnc1OC` (single isomer, unassigned) [Example H5], the IC50 is 477 nM against PI3K alpha and 11 nM on PI3K delta.
Taken in the same sequence, the figures for `COc1ncc(N2CCOc3ccc(O[C@H]4CCN(C(=O)c5ccc(=O)n(C)c5)C4)cc32)cc1C#N` [Example D17, 2-Methoxy-5-{6-[(S)-1-(1-methyl-6-oxo-1,6-dihydro-pyridine-3-carbonyl)-pyrrolidin-3-yloxy]-2,3-dihydro-benzo[1,4]oxazin-4-yl}-nicotinonitrile] were 705 nM and 12 nM.
Taken in the same sequence, the figures for `COc1ncc(N2CCOc3ccc(O[C@H]4CCN(C(=O)C5CCNCC5)C4)cc32)cc1C#N` [Example D38, 2-Methoxy-5-{6-[(S)-1-(piperidine-4-carbonyl)-pyrrolidin-3-yloxy]-2,3-dihydro-benzo[1,4]oxazin-4-yl}-nicotinonitrile] were 516 nM and 18 nM.
For `COc1ncc(N2CCOc3ccc(O[C@H]4CCN(C(=O)c5ccno5)C4)cc32)cc1C#N` [Example C9, 5-{6-[(S)-1-(Isoxazole-5-carbonyl)-pyrrolidin-3-yloxy]-2,3-dihydro-benzo[1,4]oxazin-4-yl}-2-methoxy-nicotinonitrile], the IC50 on PI3K alpha was determined as 185 nM; at PI3K delta, 6 nM.
For `COc1ncc(N2CCOc3ccc(O[C@H]4CCN(C(=O)c5cocn5)C4)cc32)cc1C#N` [Example D18, 2-Methoxy-5-{6-[(S)-1-(oxazole-4-carbonyl)-pyrrolidin-3-yloxy]-2,3-dihydro-benzo[1,4]oxazin-4-yl}-nicotinonitrile], the values for the IC50 at PI3K alpha and against PI3K delta were 281 nM and 19 nM, respectively.
Taken in the same sequence, the figures for `CCC(=O)N1CC[C@@H](Oc2ccc3c(c2)N(c2ccc(OC)nc2)CCO3)C1` [Example C3, 1-{(R)-3-[4-(6-Methoxy-pyridin-3-yl)-3,4-dihydro-2H-benzo[1,4]oxazin-6-yloxy]-pyrrolidin-1-yl}-propan-1-one] were 3380 nM and 1210 nM.
Taken in the same sequence, the figures for `CCC(=O)N1CC[C@H](Oc2ccc3c(c2)N(c2ccc(OC)c(S(=O)(=O)N(C)C)c2)CCO3)C1` [Example A15, 2-Methoxy-N,N-dimethyl-5-[6-((S)-1-propionyl-pyrrolidin-3-yloxy)-2,3-dihydro-benzo[1,4]oxazin-4-yl]-benzenesulfonamide] were 4890 nM and 184 nM.
`Cc1ncc(N2CCOc3ccc(O[C@H]4CCN(C(=O)C5CCOCC5)C4)cc32)cc1[N+](=O)[O-]` [Example A4, {(S)-3-[4-(6-Methyl-5-nitro-pyridin-3-yl)-3,4-dihydro-2H-benzo[1,4]oxazin-6-yloxy]-pyrrolidin-1-yl}-(tetrahydro-pyran-4-yl)-methanone]: at PI3K alpha, the IC50 was above 9100 nM.
The same measure, in the same setting: in the case of `COc1ncc(N2CCOc3ccc(O[C@H]4CCN(C(=O)C5CCN(C)CC5)C4)cc32)cc1C#N` [Example D14, 2-Methoxy-5-{6-[(S)-1-(1-methyl-piperidine-4-carbonyl)-pyrrolidin-3-yloxy]-2,3-dihydro-benzo[1,4]oxazin-4-yl}-nicotinonitrile] it was 415 nM.
For the compound `[2H]C1([2H])COc2ccc(O[C@H]3CCN(C(=O)c4cn(C)cn4)C3)cc2N1c1cnc(OC)c(C#N)c1` [Example B30, 2-Methoxy-5-{6-[(S)-1-(1-methyl-1H-imidazole-4-carbonyl)-pyrrolidin-3-yloxy]-3,3-dideutero-2,3-dihydro-benzo[1,4]oxazin-4-yl}-nicotinonitrile], the IC50 at PI3K delta is 15.5 nM.
On PI3K alpha, `CCC(=O)N1CC[C@H](Oc2ccc3c(c2)N(c2ccc(OC)c(S(=O)(=O)N4CCN(C)CC4)c2)CCO3)C1` [Example A27, 1-((S)-3-{4-[4-Methoxy-3-(4-methyl-piperazine-1-sulfonyl)-phenyl]-3,4-dihydro-2H-benzo[1,4]oxazin-6-yloxy}-pyrrolidin-1-yl)-propan-1-one] had a 50% inhibitory concentration (IC50) above 9100 nM.
On the same count and under the same terms, the result for `O=C(C1CCOCC1)N1CC[C@H](Oc2ccc3c(c2)N(c2ccnc(C(F)(F)F)c2)CCO3)C1` [Example A21, (Tetrahydro-pyran-4-yl)-{(S)-3-[4-(2-trifluoromethyl-pyridin-4-yl)-3,4-dihydro-2H-benzo[1,4]oxazin-6-yloxy]-pyrrolidin-1-yl}-methanone] reads 8430 nM.
`COc1ncc(N2CCOc3ccc(O[C@H]4CCN(C(=O)c5cnon5)C4)cc32)cc1C#N` [Example C7, 5-{6-[(S)-1-(Furazan-3-carbonyl)-pyrrolidin-3-yloxy]-2,3-dihydro-benzo[1,4]oxazin-4-yl}-2-methoxy-nicotinonitrile] had a half-inhibitory concentration (IC50) at PI3K alpha above 9100 nM.
On the same count and under the same terms, in the case of `COc1ncc(N2CCOc3ccc(N[C@H]4CCN(C(=O)C5CCOCC5)C4)cc32)cc1C#N` [Y, 2-Methoxy-5-{6-[(S)-1-(tetrahydro-pyran-4-carbonyl)-pyrrolidin-3-ylamino]-2,3-dihydro-benzo[1,4]oxazin-4-yl}-nicotinonitrile] it was 1920 nM; in that of `COc1ncc(N2CCOc3ccc(O[C@H]4CCN(C(=O)CN5CCOCC5)C4)cc32)cc1C#N` [Example D7, 2-Methoxy-5-{6-[(S)-1-(2-morpholin-4-yl-acetyl)-pyrrolidin-3-yloxy]-2,3-dihydro-benzo[1,4]oxazin-4-yl}-nicotinonitrile], 234 nM; in that of `COCc1ccc(N2CCOc3ccc(O[C@H]4CCN(C(=O)C5CCOCC5)C4)cc32)cn1` [Example A20, {(S)-3-[4-(6-Methoxymethyl-pyridin-3-yl)-3,4-dihydro-2H-benzo[1,4]oxazin-6-yloxy]-pyrrolidin-1-yl}-(tetrahydro-pyran-4-yl)-methanone], above 9100 nM.
Same read-out and setting: the result for `CCC(=O)N1CC[C@H](Oc2ccc3c(c2)N(c2ccc(OC)c(S(=O)(=O)N4CCOCC4)c2)CCO3)C1` [Example A25, 1-((S)-3-{4-[4-Methoxy-3-(morpholine-4-sulfonyl)-phenyl]-3,4-dihydro-2H-benzo[1,4]oxazin-6-yloxy}-pyrrolidin-1-yl)-propan-1-one] reads 5760 nM; that for `CN(C)c1cc(N2CCOc3ccc(O[C@H]4CCN(C(=O)C5CCOCC5)C4)cc32)cnc1S(C)(=O)=O` [Example B78, {(S)-3-[4-(5-Dimethylamino-6-methanesulfonyl-pyridin-3-yl)-3,4-dihydro-2H-benzo[1,4]oxazin-6-yloxy]-pyrrolidin-1-yl}-(tetrahydro-pyran-4-yl)-methanone], 243 nM; that for `COc1ncc(N2CCOc3ccc(O[C@H]4CCN(C(=O)C5CCC(OC)CC5)C4)cc32)cc1C#N` (single isomer, unassigned) [Example D36], 346 nM.
Same read-out and setting: in the case of `CCC(=O)N1CC[C@H](Oc2ccc3c(c2)N(c2ccnc(C#N)c2)CCO3)C1` [Example B3, 4-[6-((S)-1-Propionyl-pyrrolidin-3-yloxy)-2,3-dihydro-benzo[1,4]oxazin-4-yl]-pyridine-2-carbonitrile] it was above 9100 nM.
In turn, `COc1ncc(N2CCOc3ccc(O[C@H]4CCN(C(=O)C5CCOCC5)C4)cc32)cc1C#N` [Example D4, 2-Methoxy-5-{6-[(S)-1-(tetrahydro-pyran-4-carbonyl)-pyrrolidin-3-yloxy]-2,3-dihydro-benzo[1,4]oxazin-4-yl}-nicotinonitrile] had an IC50 on PI3K alpha of 236 nM.

Source of the values: patent US9539260B2, “Dihydro-benzo-oxazine and dihydro-pyrido-oxazine derivatives” (Novartis AG, priority 2012, dated 2017).
